In patent US6372756B1, “Epimorphian compound and its use” (AvMax, Inc., priority 1998, dated 2002):
Like-named read-outs stand apart in the source and are kept apart here.

Tests used:
[1] = In vivo sinomenine metabolism, mouse urine; design: species or system MRL-1 pr mice; conditions: sinomenine 100 mg/kg intraperitoneally, urine collected over 24 hours
Method: (§1) More particularly, to study its metabolism in vivo, sinomenine was injected intraperitoneally into female Lewis rats at a concentration of 150 mg/kg body weight. Blood was taken after 30 minutes from the rat tail vein and plasma samples were prepared from the blood samples via standard techniques. In a parallel study, MRL-1 pr mice were injected intraperitoneally with either sinomenine at a concentration of 100 mg/kg body weight or physiological saline. Mouse urine was collected over a period of 24 hours.
(§2) The collected samples of rat blood and mouse urine from each of these studies were split so that testing could be performed immediately and after storage at −20° C. for one week. HPLC and GC/MS analysis was performed and there were no statistically significant differences in the results obtained from the immediately tested and the frozen samples.
(§3) A metabolite peak with the same relative retention time as the major metabolite isolated after incubation of sinomenine and NADPH generating solution with rat microsomes or human liver microsomes was obtained upon analysis of the rat blood and mouse urine samples. […] FIGS. 9A-B show HPLC chromatograms run on urine samples obtained from mice treated with saline (FIG. 9A) or with sinomenine (FIG. 9B). […]

[2] = system: interleukin-2 (IL-2) synthesis in OKT3-stimulated PBMCs; experiment: OKT3-stimulated human peripheral blood mononuclear cell assay, IL-2 secretion by ELISA; assay type: cell-based; conditions: for IC50: OKT3 (1 μg/l) for 14 hours, curve fit, three independent experiments, read-out: IC50 of inhibition of IL-2 synthesis
Method: In an OKT3-stimulated human peripheral blood mononuclear cell assay, the relative biological activities of sinomenine and N-demethyl-sinomenine were tested.
The OKT3-stimulated human peripheral blood mononuclear cell assay was performed as described in Liu, L. et al., Inhibition of Lymphocyte Proliferation by the Anti-Arthritic Drug Sinomenine, Int. J. Immunopharmac., 16(8):685-691, (1994). Human Peripheral Blood Mononuclear Cells (PBMCS) were isolated from heparinized blood drawn from healthy adults. After separation from other blood components by density gradient centrifugation on Ficoll-hypaque (Biochrom, Berlin, Germany), the PBMCs were suspended in RPMI 1640 medium/10%FCS (RPMI 1640 medium with L-glutamine and nonessential amino acids: Gibco (Eggenstein, Germany); fetal calf serum (FCS): PAA Biologics (Marburg, Germany)).
The PBMCs (10^5 cells in a total volume of 150 μl per well) were activated by incubation with the monoclonal anti-T-cell receptor/CD3 complex antibody OKT3 (1 μg/l) for 14 hours. During this incubation, either sinomenine or N-demethyl-sinomenine was present in each of the main experimental wells at concentrations ranging from 10^−8 to 10^−3 M, as indicated on the x-axes of the graphs of FIGS. 10A and 10B. Control wells containing neither sinomenine nor its major metabolite were also prepared. The concentration of secreted IL-2 in the supernatants of activated PBMCs was determined using a commercial ELISA kit (Immunotech, Hamburg, Germany) following the manufacturer's instructions. In each of FIGS. 10A-B, the mean and standard error of three independent experiments are shown.
FIG. 10A presents the results for inhibition of IL-2 secretion by sinomenine. The concentration of IL-2 production, as a percentage of the control (100% equalled 1135 pg/ml, in this instance), was plotted against the molar concentration of sinomenine for each data point. The curves depicted were generated by a curve fit computer program (Microcal Origin Version 3.5). […]

[3] = In vivo sinomenine metabolism, rat plasma; design: species or system female Lewis rats; conditions: sinomenine 150 mg/kg intraperitoneally, blood after 30 minutes
Method: as §1, §2, §3

[4] = Water solubility inferred from retention on lipophilic reversed-phase HPLC column; assay type: physicochemical; conditions: evidenced by shorter retention time on lipophilic reversed-phase HPLC column
Source text: This characteristic of the novel compound results in a different oral bioavailability, pharmacokinetic profile, and organ distribution pattern than the known compound and also leads to ease in creating formulations for therapeutic use.
An HPLC system was also used for analysis of the sinomenine metabolism end products. For analytical HPLC, sinomenine and its metabolites were separated on a 250×4 mm LiChroCart column filled with endcapped Supersphere RP-18 material of 5 μm particle size and 100 Å pore width (Merck, Darmstadt, Germany).
The metabolite was prepared as described in Example 1. The samples were centrifuged (2000 g, 2 minutes) and 100 μl of the supernatant was injected into the analytical HPLC system. A control sample was prepared by the method described in Example 1 except that sinomenine and liver microsomes were incubated with an equal amount of phosphate buffer instead of with the NADPH generating solution. An HPLC run of the control sample was also made. The flow rate for the HPLC was set at 1 ml/min and the UV detection wavelength was 234 nm. The analytical column was kept at room temperature.
Sinomenine and its metabolites were isocratically eluted from the column with a mobile phase of 9.0/9.0/12.0/70.0 v/v/v/v methanol/acetonitrile/0.2 M sodium acetate/water, pH 5.5. The various fractions were quantified based on an external sinomenine calibration curve. […]

human liver microsomes = experiment: Incubation of sinomenine with human liver microsomes and NADPH generating system, HPLC/UV; assay type: in vitro ADME
Method: The livers of male Sprague Dawley rats, treated with dexamethasone for two days, and human liver specimens provided the sources for the starting material. Liver microsomes were prepared using standard centrifugation techniques as described by Guengerich (Guengerich, F. P., et al., Microsomal Enzymes Involved in Toxicology-Analysis and Separation, In: Principles and Methods in Toxicology (Ed. Hayes A W), pp. 609-637, Raven Press, New York, (1982)) with some modifications. Specifically, phosphate buffer was used instead of TRIS buffer and microsomes were stored at −80° C. The protein concentration was determined using a bicinchoninic acid assay (Redingbaugh, M. G., et al., Adaptation of the Bicinchoninic Acit Protein Assay for Use With Microtiter Plates and Sucrose Gradient Fractions, Anal. Biochem., 153:267-271, (1986)) and adjusted with 0.1 M potassium phosphate buffer, pH 7.4, to 3 g/l. […]
The presence of sinomenine and N-demethyl-sinomenine over time in the presence of microsomes and an NADPH generating solution were determined by HPLC and ultraviolet (UV) analysis. […]
For the HPLC analysis, a 250×4 mm analytical column was prepared with endcapped C18 material of 5 μm particle size. […] Sinomenine and its metabolites were detected with a UV wavelength of 234 nm. […]

Lymphocyte proliferation = conditions: in vitro; cited from earlier work
[5] = in vivo; cited from earlier work

Row | Structure (SMILES) | detection as metabolite in urine [1] | IC50 [2] [µM] | biological activity (IL-2 inhibition IC50) relative to sinomenine ([2]; same assay, relative to sinomenine) | detection as metabolite in plasma [3] | water solubility relative to sinomenine [4] | share of all sinomenine metabolic products (human liver microsomes; believed to represent) | effect on lymphocyte proliferation (Lymphocyte proliferation) | IC50 ([2]; Homo sapiens, PBMC) [µM] | side effects [5] | amounts of sinomenine and its major metabolite (human liver microsomes; 120 minutes after the start of the reaction, human liver microsomes)
1 | COC1=C[C@H]2[C@H]3Cc4ccc(OC)c(O)c4[C@@]2(CCN3)CC1=O [N-demethyl-sinomenine] | detected as a metabolite | 20 | approximately five | detected as a metabolite | greater water solubility | approximately 90% |  |  |  | 
2 | COC1=C[C@@H]2[C@@H]3Cc4ccc(OC)c(O)c4[C@]2(CCN3C)CC1=O [sinomenine, reference compound] |  |  |  |  |  |  | inhibited by sinomenine in a reversible manner without exhibiting direct cytotoxic effects | 100 | minor side effects such as mild pain, cough, and diarrhea | approximately equal amounts
